From PubChem BioAssay AID2812 (Southern Research Specialized Biocontainment Screening …, 2010)
The source made the active and inactive calls. No rule for the calls is given here.

Test system: MAGI host cells cytotoxicity, % cell control, 5% serum
Test: cytotoxicity in MAGI host cells, dose response, cytotoxicity control for HIV-1 antiviral project, 5% and 10% serum, set 2 (AID 2812)
[1] = MAGI host cells cytotoxicity, % cell control, 10% serum

## CCS(=O)(=O)C1=NSC2=NC(=O)/C(=C\c3ccc(OS(=O)(=O)c4ccccc4)cc3)C(=N)N21
  TC50: > 100 µM (inactive)
[1]
  TC50: > 100 µM

## COc1ccc(C(=O)Oc2ccc(C=NNc3ccc(Cl)c(C(=O)O)c3)cc2OC)cc1
  TC50: > 100 µM (inactive)
[1]
  TC50: > 100 µM

## O=C1NC(=S)N(c2ccc(F)cc2)C(=O)/C1=C/c1ccco1
[1]
  TC50: > 100 µM

## Cc1ccc(-n2cccc2/C=C2/C(=N)N3C(=NC2=O)SN=C3S(C)(=O)=O)cc1Cl
  TC50: > 100 µM (inactive)
[1]
  TC50: > 100 µM

## COc1cc(C=NNc2ccc(Cl)c(C(=O)O)c2)ccc1OC(=O)c1ccc(F)cc1
  TC50: > 100 µM (inactive)
[1]
  TC50: > 100 µM

## CC1(C)CC(=O)C2=C(C1)c1c(ccc3ccccc13)NC2c1cc([N+](=O)[O-])cc([N+](=O)[O-])c1O (stereo not given)
  TC50: 58.6 µM
[1]
  TC50: > 100 µM

## COc1ccc(OC)c(N2C(=O)/C(=C/c3ccco3)C(=O)NC2=S)c1
[1]
  TC50: > 100 µM

## COc1ccccc1NS(=O)(=O)c1cccc(-n2c(O)c(C=Nc3ccccc3C(=O)O)c3ccccc3c2=O)c1
  TC50: 93.7 µM
[1]
  TC50: > 100 µM

## CS(=O)(=O)C1=NSC2=NC(=O)/C(=C\c3cccn3-c3ccc(Cl)cc3)C(=N)N21
  TC50: > 100 µM (inactive)
[1]
  TC50: > 100 µM

## Cc1cc(C)cc(-n2cccc2/C=C2/C(=N)N3C(=NC2=O)SN=C3S(C)(=O)=O)c1
  TC50: 79.5 µM
[1]
  TC50: > 100 µM

## CC(C)S(=O)(=O)C1=NSC2=NC(=O)/C(=C\c3ccc(-c4ccccc4)o3)C(=N)N21
  TC50: 74 µM
[1]
  TC50: > 100 µM

## COc1cc(C=NNc2ccc(Cl)c(C(=O)O)c2)ccc1OC(=O)c1ccccc1F
  TC50: > 100 µM (inactive)
[1]
  TC50: > 100 µM

## O=c1c(=Cc2cc([N+](=O)[O-])cc([N+](=O)[O-])c2O)sc2nc3ccccc3n12
  TC50: > 100 µM (inactive)
[1]
  TC50: > 100 µM

## Cc1ccc(S(=O)(=O)Oc2ccc(/C=C3/C(=N)N4C(=NC3=O)SN=C4S(C)(=O)=O)cc2)cc1
  TC50: > 100 µM (inactive)
[1]
  TC50: > 100 µM

## CC(C)S(=O)(=O)C1=NSC2=NC(=O)/C(=C\c3ccc(-c4cccc(C(=O)O)c4)o3)C(=N)N21
  TC50: > 100 µM (inactive)
[1]
  TC50: > 100 µM

## Cc1ccc(-n2c(O)c(C=Nc3ccccc3-c3n[nH]c(=S)[nH]c3=O)c3ccccc3c2=O)c(C)c1
[1]
  TC50: > 100 µM

## O=C(O)c1ccccc1C(=O)N(Cc1cccc(Oc2ccc(Cl)cc2)c1)[C@H]1CCCc2ccccc21
  TC50: 56.4 µM
[1]
  TC50: > 100 µM

## O=C(O)c1cc(NN=Cc2ccc(-c3ccccc3)cc2)ccc1Cl
  TC50: > 100 µM (inactive)
[1]
  TC50: > 100 µM

## CS(=O)(=O)C1=NSC2=NC(=O)/C(=C\c3ccc(OS(=O)(=O)c4ccccc4)cc3)C(=N)N21
  TC50: > 100 µM (inactive)
[1]
  TC50: > 100 µM
